Assay results: patent publication US20120165325A1, “Stable forms of N-(2,6-Dimethyl-4-morpholin-4-yl-phenyl)-3,3-dimethyl-butyramide” (H. Lundbeck A/S, priority 2009, published 2012)
Marks after values point to notes of the source that are not given here.

What was measured:
[1] = tested on: DA levels in the nucleus accumbens; assay: Microdialysis: DA levels in the nucleus accumbens of freely moving rats; type: in vivo, rat; conditions: for DA level in the nucleus accumbens, % of baseline: amphetamine 0.5 mg/kg s.c. + compound 5 mg/kg s.c.
Method: Subjects. Male Sprague-Dawley rats (Charles River), initially weighing 275-300 g, were used. The animals were housed under a 12-hr light/dark cycle under controlled conditions for regular in-door temperature (21±2° C.) and humidity (55±5%) with food and tap water available ad libitum.
Surgery. Animals were anaesthetized with hypnorm/dormicum (2 ml/kg s.c.) and intracerebral guide cannulas (CMA/12) were stereotaxically implanted, positioning the dialysis probe tip in the nucleus accumbens (co-ordinates: 1.7 mm anterior to bregma, −1.2 mm lateral to bregma, 8.0 mm ventral to the dura). Anchor screws and acrylic cement was applied for fixation of the guide cannula. The body temperature of the animals was maintained at 37° C. by means of a rectal probe and a heating plate. The rats were allowed to recover from surgery for 2 days, housed singly in cages.
Experimental procedure. On the day of the experiment, a microdialysis probe (CMA/12, 0.5 mm diameter, 2 mm length) was inserted through the guide cannula of the conscious animal.
The probes were connected to a microinjection pump via a dual channel swivel which allowed the animals unrestricted movements. Perfusion of the microdialysis probe with filtered Ringer solution (145 mM NaCl, 3 mM KCl, 1 mM MgCl2, 1.2 mM CaCl2) was maintained for the duration of the experiment at a constant flow rate of 1 μL/min. After 180 min of stabilisation, the experiments were initiated. Dialysates were collected every 20 min. After the experiments the rats were sacrificed by decapitation, their brains removed, frozen and sliced for probe placement verification.
Administration of compounds. N-(2,6-dimethyl-4-morpholin-4-yl-phenyl)-3,3-dimethyl-butyramide (5 mg/kg) or vehicle (10% 2-hydroxy-propyl-beta-cyclodextrin, isotonic, pH 5-7) was administered subcutaneously in a volume of 2.5 ml/kg. Thirty min after the first administration dex-amphetamine sulphate (0.5 mg/kg s.c.) was administered.
Analysis of dialvsate. The concentration of dopamine (DA) in the dialysates was assessed by means of HPLC with electrochemicl detection. The dialysate constitutents were separated by reverse phase liquid chromatography (ODS 150×3 mm, […]). Mobile phase consisted of 90 mM NaH2PO4, 50 mM sodium citrate, 367 mg/l sodium 1-octanesulfonic acid, 50 μM EDTA and 8% acetonitrile (pH 4.0) at a flow rate of 0.5 mL/min. Electrochemical detection of DA was accomplished using a coulometric detector; potential set at E1=−75 mV and E2=300 mV (guard cell at 350 mV) (Coulochem II, ESA). The dialysate levels of DA in the three dialyse samples preceding the administration of compound were averaged and used as baseline level of DA (100%).
Statistical analysis. The dialysate levels of DA in the three dialyse samples preceding the administration of compound were averaged and used as baseline level of DA (100%). Data were analysed using repeated measure analyses of variance followed by post hoc tests (Tukey test), when appropriate. *p<0.05 were considered significant.

Male Wistar rats = assay: Amphetamine challenge: antagonism of d-amphetamine induced hyperactivity; type: in vivo; conditions: rat; s.c. 30 min before d-amphetamine sulphate 0.5 mg/kg; motility over 2 hours; std. dev. in brackets
Method: Subjects. Male Wistar rats (Taconic, Denmark) weighing 170-240 g are used. The animals were housed under a 12-hr light/dark cycle under controlled conditions for regular in-door temperature (21±2° C.) and humidity (55±5%) with food and tap water available ad libitum. Eight rats were used at each dose level and in the parallel control group receiving the vehicle to the test compound plus d-amphetamine and the group receiving vehicle injections only.
Experimental procedure. The experiment was made in normal light conditions in an undisturbed room. The test substance was injected 30 min before s.c. before the injection of d-amphetamine sulphate (0.5 mg/kg). Immediately after injection of d-amphetamine, the rats were placed individually in the test cages that were placed in a U-frame, equipped with 4 infrared light sources and photocells. The light beams crossed the cage 4 cm above the cage floor. Recording of a motility count required interruption of adjacent light beams, thus avoiding counts induced by stationary movements of the rat. Motility (counts) was recorded for a period of 2 hours. The mean motility induced by vehicle (saline) treatment in the absence of d-amphetamine was used as baseline. The 100 percent effect of d-amphetamine was accordingly calculated to be total motility counts minus baseline. The response in groups receiving test compound was thus determined by the total motility counts minus baseline, expressed in percent of the similar result recorded in the parallel amphetamine control group. The percent responses were converted to percent inhibition from which ED50 values were calculated by means of log-probit analyses. In a parallel set of data, the potential sedative properties (motility inhibition) of the test compounds were evaluated using essentially the same procedure with the exception of not administering d-amphetamine-sulphate at the initiation of locomotor assessment.

Male NMRI mice = assay: Forced swim test; type: in vivo, mouse; conditions: 30 min before test, last 3 min of 6 min swim, vehicle = 100
Method: Subjects. Male NMRI mice (Charles River) weighing 23-25 g were used. The mice were kept 8 mice pr cage in a 12-hr light/dark cycle under controlled conditions for regular in-door temperature (21±2° C.) and humidity (55±5%) with food and tap water available ad libitum. 8 mice were used pr experimental group.
Experimental procedure. The mice were placed in 2000 ml beaker containing 1200 ml of tempered water (25° C.) and left to swim for 6 min. The performance of the mice was video recorded, digitalized and analysed by means of a digital analysis system (Bioobserve). The time spent immobile for the last 3 min. of the test session was quantified for each mouse.
Treatment. 30 min. before the test, mice were treated s.c. with N-(2,6-dimethyl-4-morpholin-4-yl-phenyl)-3,3-dimethyl-butyramide or vehicle (10-%-2-OH-propyl-cyclodextrin, 10 ml/kg). In addition as positive control, imipramine-HCl (40 mg/kg) and a saline control (10 ml/kg) was included.
Analyses. The time spent immobile was statistically compared across the experimental groups against the relevant control group by means of one-way analysis of variance. A post-hoc test (Student-Newman-Keuls) was employed when appropriate. P-levels <0.05 were considered significant.

Cc1cc(N2CCOCC2)cc(C)c1NC(=O)CC(C)(C)C [N-(2,6-dimethyl-4-morpholin-4-yl-phenyl)-3,3-dimethyl-butyramide]
Effect on basal extracellular DA level in the nucleus accumbens ([1]; freely moving rats, data not shown): did not significantly affected | DA level in the nucleus accumbens, % of baseline ([1]; time 0 min (baseline sample)): 91 ± 4 % of baseline | DA level in the nucleus accumbens, % of baseline ([1]; time 20 min): 112 ± 12 % of baseline | DA level in the nucleus accumbens, % of baseline ([1]; time 40 min): 227 ± 46 % of baseline | DA level in the nucleus accumbens, % of baseline ([1]; time 60 min): 262 ± 53* % of baseline | DA level in the nucleus accumbens, % of baseline ([1]; time 80 min): 195 ± 38* % of baseline | DA level in the nucleus accumbens, % of baseline ([1]; time 100 min): 172 ± 24 % of baseline | DA level in the nucleus accumbens, % of baseline ([1]; time 120 min): 166 ± 32 % of baseline | DA level in the nucleus accumbens, % of baseline ([1]; time 140 min): 129 ± 35 % of baseline | DA level in the nucleus accumbens, % of baseline ([1]; time −20 min (baseline sample)): 100 ± 3 % of baseline | DA level in the nucleus accumbens, % of baseline ([1]; time −40 min (baseline sample)): 108 ± 5 % of baseline | ED50 (Male Wistar rats): 2.1 mg/kg | Immobility in % (±S.D.) (Male NMRI mice; dose 1.3 mg/kg): 102% | Immobility in % (±S.D.) (Male NMRI mice; dose 2.5 mg/kg): 96.7% | Immobility in % (±S.D.) (Male NMRI mice; dose 5.0 mg/kg): 82.3%
